Here are results for eight compounds from paper PMC6469676 (SLAS discovery : advancing life sciences R & D, 2018).

What is called viability is a read-out of living cells in per cent, often relative to untreated cells. In general, IC50 refers to the midpoint of a concentration-inhibition curve.

One data set deals with SNV. The class given is cell-based, Sin Nombre virus.
The next data set in a line: in vitro. Particulars: African green monkey.
Data set [1] relates to SNV^R18 on DAF-functionalized beads. It is filed as binding.
For data set [2], the system named is SNV-induced cAMP production in CHO-A24 cells. The class given is cell-based.
The next data set concerns the target integrin αIIbβ3 (Homo sapiens, UniProt P05106+P08514). It is filed as cell-based.
Data set [3] has as its system SNV^F18 bound to Tanoue B cells. The following applies: read-out: IC50, competition binding vs SNV^F18 bound to Tanoue B cells.
The subject of a further data set is Sin Nombre virus (SNV). The class given is cell-based. The following applies: 10 µM.
In a further data set the test system is Hantaan virus (HTN). It is filed as cell-based. Particulars: 10 µM.

integrin αIIbβ3, sequence (P08514 32-887 limits assumed): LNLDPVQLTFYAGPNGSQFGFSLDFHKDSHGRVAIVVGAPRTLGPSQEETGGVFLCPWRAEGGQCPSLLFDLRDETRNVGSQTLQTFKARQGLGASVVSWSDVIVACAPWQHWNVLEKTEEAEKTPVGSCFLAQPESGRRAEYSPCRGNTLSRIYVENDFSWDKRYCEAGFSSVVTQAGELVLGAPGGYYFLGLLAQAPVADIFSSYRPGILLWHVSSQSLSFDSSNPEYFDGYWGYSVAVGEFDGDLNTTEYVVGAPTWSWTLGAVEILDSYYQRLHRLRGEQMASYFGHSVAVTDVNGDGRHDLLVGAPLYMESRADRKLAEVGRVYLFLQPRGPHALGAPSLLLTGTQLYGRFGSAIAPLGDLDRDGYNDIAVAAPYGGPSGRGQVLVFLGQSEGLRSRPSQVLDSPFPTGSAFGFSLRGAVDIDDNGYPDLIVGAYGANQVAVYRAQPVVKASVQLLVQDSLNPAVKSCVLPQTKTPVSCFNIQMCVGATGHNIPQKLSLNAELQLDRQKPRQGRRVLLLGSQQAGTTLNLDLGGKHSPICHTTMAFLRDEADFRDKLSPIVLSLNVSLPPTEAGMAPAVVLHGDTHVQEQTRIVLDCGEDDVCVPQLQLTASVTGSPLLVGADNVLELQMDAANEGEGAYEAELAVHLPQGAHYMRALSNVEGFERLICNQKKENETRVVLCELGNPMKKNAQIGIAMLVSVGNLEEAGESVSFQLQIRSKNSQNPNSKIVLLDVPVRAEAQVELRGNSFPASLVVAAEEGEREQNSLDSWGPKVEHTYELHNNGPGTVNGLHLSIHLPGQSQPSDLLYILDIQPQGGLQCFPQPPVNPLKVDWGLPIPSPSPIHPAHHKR
integrin αIIbβ3, sequence (P08514 891-1039 partner limits assumed): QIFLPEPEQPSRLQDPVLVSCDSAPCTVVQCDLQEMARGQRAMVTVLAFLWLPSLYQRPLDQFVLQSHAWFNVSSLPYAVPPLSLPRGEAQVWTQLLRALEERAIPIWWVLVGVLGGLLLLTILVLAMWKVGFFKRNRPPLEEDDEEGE
integrin αIIbβ3, sequence (P05106 27-788): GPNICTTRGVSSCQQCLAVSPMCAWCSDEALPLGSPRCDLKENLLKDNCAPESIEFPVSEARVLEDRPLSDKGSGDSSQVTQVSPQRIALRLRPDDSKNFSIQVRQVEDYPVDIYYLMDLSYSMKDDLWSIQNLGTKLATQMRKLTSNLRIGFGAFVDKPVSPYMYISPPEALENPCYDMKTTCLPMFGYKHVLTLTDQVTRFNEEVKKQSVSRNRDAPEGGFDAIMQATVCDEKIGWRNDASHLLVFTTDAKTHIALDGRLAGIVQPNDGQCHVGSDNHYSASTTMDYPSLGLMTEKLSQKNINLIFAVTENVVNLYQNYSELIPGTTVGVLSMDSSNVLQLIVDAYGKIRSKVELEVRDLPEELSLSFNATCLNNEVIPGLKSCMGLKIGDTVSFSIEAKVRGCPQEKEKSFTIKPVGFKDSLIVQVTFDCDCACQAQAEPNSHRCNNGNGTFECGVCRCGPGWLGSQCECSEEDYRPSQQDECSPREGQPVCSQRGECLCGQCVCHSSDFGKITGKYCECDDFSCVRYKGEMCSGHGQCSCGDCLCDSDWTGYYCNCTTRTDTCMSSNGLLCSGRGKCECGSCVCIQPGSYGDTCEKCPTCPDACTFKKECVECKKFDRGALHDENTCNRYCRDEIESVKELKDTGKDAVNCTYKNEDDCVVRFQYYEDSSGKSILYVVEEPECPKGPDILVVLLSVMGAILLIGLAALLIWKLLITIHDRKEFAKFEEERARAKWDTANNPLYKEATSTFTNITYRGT

`O=C(Nc1cc(C(=O)Nc2ccc(S(=O)(=O)O)cc2S(=O)(=O)O)cc(C(=O)Nc2ccc(S(=O)(=O)O)cc2S(=O)(=O)O)c1)Nc1cc(C(=O)Nc2ccc(S(=O)(=O)O)cc2S(=O)(=O)O)cc(C(=O)Nc2ccc(S(=O)(=O)O)cc2S(=O)(=O)O)c1` [NF449]: the “reduction of viral N-protein relative to vehicle-treated cells” value in the data set with SNV is listed as above 80%.

In the data set “in vitro”, `COC(=O)Nc1nc2ccc(Sc3ccccc3)cc2[nH]1` [fenbendazole] came in with a viability of around 70%.

In “in vitro”, `Cc1cc2c(C(C)C)c(O)c(O)c(C=O)c2c(O)c1-c1c(C)cc2c(C(C)C)c(O)c(O)c(C=O)c2c1O` [gossypol] returned a viability of around 30%. Moreover, the “koff, drop in bead fluorescence” value in data set [1] is given as ~ 0.25.

In “in vitro”, `O=C(Nc1ccc([N+](=O)[O-])cc1Cl)c1cc(Cl)ccc1O` [niclosamide] returned a viability of around 50%.

Turning to `Cc1c(Cl)cccc1Nc1ccccc1C(=O)O` [tolfenamic acid], in data set [1], the “koff, drop in bead fluorescence” value is ~ 0.25.

As for GRGDSP, the “effect on SNV-stimulated cAMP” value in data set [2] is “did not affect SNV-stimulated cAMP response”. In addition, at integrin αIIbβ3, the “effect on SNV-induced PAC-1 staining” value is “inhibited PAC1 staining”.

antimycin: the IC50 in data set [3] stood at 10 µM. In addition, in data set [2], the “effect on SNV-stimulated cAMP” value is given as “inhibited stimulation of cAMP”. In addition, the “cytopathic effects after 24 hours” value with Vero E6 cells is “minimal cytopathic effects”. The “% inhibition of infection by SNV” value in the data set on Sin Nombre virus (SNV) is listed as at least 80%. Further, in data set [1], the “koff, drop in bead fluorescence” value is on record as ~ 0.25. In addition, at integrin αIIbβ3, the “effect on SNV-induced PAC-1 staining” value is “inhibited PAC-1 staining”. For the same compound, in the data set on Hantaan virus (HTN), the “% inhibition of infection by HTN” value is listed as at least 80%.

In the case of tocopherol, the “cytopathic effects after 24 hours” value with Vero E6 cells is “minimal cytopathic effects”.
